{"source": "patent EP0927178B1", "about": "“TRICYCLIC COMPOUNDS USEFUL FOR INHIBITION OF G-PROTEIN FUNCTION AND FOR TREATMENT OF PROLIFERATIVE DISEASES” (SCHERING CORPORATION, priority 1996, dated 1998)", "test_system": "COS Cell", "experiment": "COS Cell IC50 (Cell-Based Assay)", "settings": "procedure of WO 95/10516", "description": "FPT IC50 (inhibition of farnesyl protein transferase, in vitro enzyme assay) and COS Cell IC50 (Cell-Based Assay) were determined following the assay procedures described in WO 95/10516, published April 20, 1995. GGPT IC50 (inhibition of geranylgeranyl protein transferase, in vitro enzyme assay), Cell Mat Assay, and anti-tumor activity (in vivo anti-tumor studies) could be determined by the assay procedures described in WO 95/10516. The disclosure of WO 95/10516 is incorporated herein by reference thereto."}
{"smiles": "NC(=O)N1CC[C@@H](CC(=O)N2CCC(C3c4ncc(Br)cc4CCc4cc(Cl)cc(Cl)c43)CC2)C1", "note": "(stereo partly drawn) [Example 2, 3(S) -[2-(4-(3-bromo-8,10-dichloro-6-11-dihydro-5-H-benzo[5,6]-cyclohepta[1,2-b]pyridin-11-yl)-1-piperidinyl]-2-oxoethyl]-1-pyrrolidinecarboxamide]", "values": [{"measurement": "IC50", "value": 30, "unit": "nM"}]}
